{
  "source": "patent US9174983B2",
  "about": "“Pyrroloquinoline quinone disodium salt crystal and method for producing the same” (MITSUBISHI GAS CHEMICAL COMPANY, INC., priority 2011, dated 2015)",
  "type_in_all_cases": "physicochemical",
  "key": {"[1]": {"assay": "Dispersibility test of PQQ disodium crystals in soybean oil (precipitation time)", "details": "5 mg crystal in 200 μL soybean oil, room temperature, time until all floating crystals precipitated to the bottom, index of dispersibility", "source_text": "In this example, the PQQ disodium crystal in Crystalline Form 1 and Crystalline Form 2 was compared in dispersibility in edible oils with the conventional crystals.\nAfter drying, the pressure in the vessel was returned to atmospheric pressure, and immediately the glass vessel was closed with a lid. […] After drying, the temperature within the flask was reduced to room temperature with nitrogen gas refluxed.\nThen, they were allowed to stand still at room temperature, and the time period until all of the crystals floating on the soybean oil were precipitated to the bottom of the vessel was measured, which was used as an index of dispersibility for each crystal."}, "[2]": {"assay": "Thermogravimetric analysis of water content", "details": "crystal formed at 180° C.", "source_text": "However, this crystal was unstable."}, "[3]": {"assay": "Water content by the Karl Fischer method", "experimental": "The water content (% by weight) of each crystal was determined by the Karl Fischer method."}, "[4]": {"assay": "Heat stability on heating in edible oil (high performance liquid chromatography)", "details": "after heating in edible oil ODO at 150° C. for 30 minutes"}, "[5]": {"details": "resulting crystal after the drying step, % by weight"}},
  "data": [
    {"molecule": "pyrroloquinoline quinone disodium crystal [Crystalline Form 2]", "values": [
      {"measurement": "Precipitation time", "setting": "[1]", "result": 45, "unit": "min"},
      {"measurement": "water content", "setting": "[2]", "result": "~0", "unit": "%"}
    ]},
    {"molecule": "pyrroloquinoline quinone disodium crystal [Crystalline Form 1]", "values": [
      {"measurement": "Precipitation time", "setting": "[1]", "result": 30, "unit": "min"},
      {"measurement": "water content", "setting": "[3]; [5]", "result": 0.7, "unit": "%"},
      {"measurement": "water content", "setting": "[3]; resulting crystal after the drying step, % by weight, listed as Example 2", "result": 2.2, "unit": "%"},
      {"measurement": "water content", "setting": "[3]; resulting crystal after the drying step, % by weight, listed as Example 3", "result": 1.9, "unit": "%"},
      {"measurement": "amount of impurities contained in the crystal", "setting": "[4]", "result": "did not increase"}
    ]},
    {"molecule": "pyrroloquinoline quinone disodium crystal [Precursor crystal, reference compound]", "values": [
      {"measurement": "Precipitation time", "setting": "[1]", "result": 0.5, "unit": "min"},
      {"measurement": "Precipitation time", "setting": "[1]; listed as precursor crystal", "result": 0.5, "unit": "min"},
      {"measurement": "water content", "setting": "[3]; after disposal at 40° C. and relative humidity 75%", "result": 12.7, "unit": "%"}
    ]},
    {"molecule": "O=C([O-])c1cc(C(=O)[O-])c2c(n1)C(=O)C(=O)c1cc(C(=O)O)[nH]c1-2.[Na+].[Na+]", "note": "[Comparative Example 1, reference compound]", "values": [
      {"measurement": "water content", "setting": "[3]; crystal as precipitated with ethanol, before drying", "result": 14.5, "unit": "%"},
      {"measurement": "water content", "setting": "[3]; [5]", "result": 9.6, "unit": "%"}
    ]}
  ]
}
